Data as given in article PMC12383815 (Biomolecules, 2025).
Counter-ions that a name gives are not always drawn.

Each compound was assayed against T1, shikimate dehydrogenase (SaSDH) (Staphylococcus aureus, UniProt Q6GGA5) (assay: recombinant enzyme activity, NADPH formation at […] nm, dose-response; progress-curve kinetics). Conditions: not given.
T1 construct: gene aroE
Assay type: biochemical
In the case of `O=C(O)/C=C/c1ccc(O)c(O)c1` [Caffeic acid], the IC50 is reported as 240 µM.
With `O=C(CCc1ccc(O)cc1)c1c(O)cc(O)cc1O[C@@H]1O[C@H](CO)[C@@H](O)[C@H](O)[C@H]1O` [Phloridzin] the IC50 was 140 µM.

Same assay, conditions: read-out: IC50
With `C[C@@H]1O[C@@H](OC[C@H]2O[C@@H](Oc3c(-c4ccc(O)c(O)c4)oc4cc(O)cc(O)c4c3=O)[C@H](O)[C@@H](O)[C@@H]2O)[C@H](O)[C@H](O)[C@H]1O` [Rutin] the IC50 was 165 µM.

What follows are compounds tested against T2, shikimate dehydrogenase (SaSDH) (Staphylococcus aureus, UniProt Q6GGA5) (assay: biochemical). Conditions: not given.
T2 construct: gene aroE
T2 sequence (Q6GGA5 1-268): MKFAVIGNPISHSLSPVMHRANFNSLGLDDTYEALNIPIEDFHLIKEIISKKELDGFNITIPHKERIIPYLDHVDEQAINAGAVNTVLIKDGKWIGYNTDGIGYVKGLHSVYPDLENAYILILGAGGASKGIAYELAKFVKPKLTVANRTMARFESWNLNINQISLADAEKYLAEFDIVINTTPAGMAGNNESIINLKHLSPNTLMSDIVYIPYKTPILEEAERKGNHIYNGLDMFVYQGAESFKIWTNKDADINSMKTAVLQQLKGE
Parameters: SaSDH enzyme activity inhibition screening at 500 uM, 10% DMSO
Description: The inhibition percentage was determined by measuring enzyme activity under the conditions previously described by adding each compound from an in-house natural product derivative chemical library (40 compounds) to the reaction mixture at quantities of 500 μM; these compounds had been previously dissolved in Dimethyl Sulfoxide (DMSO), keeping 10% DMSO as final concentration. The percentage inhibition was calculated by adjusting the data from the following equation [33]: Inhibition %=A0−A1/A0 ×100 where the following definitions are used: In the search for new SaSDH inhibitors, an in-house chemical library of 40 natural product derivatives was screened against SaSDH activity. Our findings indicate that among the 40 molecules evaluated, the compounds phloridzin (93% of inhibition), rutin (87% of inhibition), and caffeic acid (70% of inhibition) inhibited SaSDH using a 500 µM concentration.
Compound `Cn1ccnc1S(=O)(=O)Cl` [1-Methylimidazole-2-sulfonyl chloride] has an inhibition at 500 µM of 13%.
For `O=Cc1c[nH]c2c1ccc1ccccc12` [1H-Benzo[g]indole-3-carboxaldehyde], the inhibition at 500 µM was 19%.
`Clc1ccnc(Cl)c1` [2,4-Dichloropyridine] showed an inhibition at 500 µM of 19%.
`Nc1nc(-c2ccc3c(c2)CCCC3)cs1` [2-Amino-4-(5,6,7,8-tetrahydronaphthalen-2-yl)thiazole] gave an inhibition at 500 µM of 8%.
Compound `Nc1ccc(Br)cn1` [2-Amino-5-bromopyridine] has an inhibition at 500 µM of 8%.
`N#Cc1cnc(N)s1` [2-Aminothiazole-5-carbonitrile] showed an inhibition at 500 µM of 17%.
For `Brc1nc2ccccc2[nH]1` [2-Bromo-1H-benzimidazole], the inhibition at 500 µM was 10%.
For `Fc1ccc(Cl)nc1` [2-Chloro-5-fluoropyridine], the inhibition at 500 µM was 18%.
Work on `O=C1CNCCN1` [2-Oxopiperazine] yielded an inhibition at 500 µM of 13%.
Work on `C1SCC2OC12` (centres unmarked) [3,4-Epoxy-tetrahydrothiophene] yielded an inhibition at 500 µM of 9%.
`COc1cccc(C(=O)O)c1` [3-Methoxybenzoic acid] showed an inhibition at 500 µM of 2%.
With `Cc1ncc(CO)c(C)c1O` [4-Deoxypyridoxine hydrochloride] the inhibition at 500 µM was 12%.
For `FC(F)(F)c1ccc(Br)cn1` [5-Bromo-2-(trifluoromethyl)pyridine], the inhibition at 500 µM was 9%.
Compound `O=c1[nH]cc(Br)cc1[N+](=O)[O-]` [5-Bromo-2-hydroxy-3-nitropyridine] has an inhibition at 500 µM of 18%.
With `O=C(Cl)c1nc2ccccc2s1` [Benzothiazole-2-carbonyl chloride] the inhibition at 500 µM was 14%.
`COC(=O)c1nc[nH]c1C(=O)OC` [Dimethyl imidazole-4,5-dicarboxylate] showed an inhibition at 500 µM of 18%.
Work on `COc1ccc(-c2coc3cc(O)ccc3c2=O)cc1` [Formononetin] yielded an inhibition at 500 µM of 13%.
Work on `O=C1O[C@H]([C@@H](O)CO)C(O)=C1O` [L-Ascorbic acid] yielded an inhibition at 500 µM of 4.5%.
`CC(C)=CCC1=C(O)C(=O)c2ccccc2C1=O` [Lapachol] showed an inhibition at 500 µM of 6%.
In the case of `COc1cc(C(=O)OCCCCNC(=N)N)cc(OC)c1O` [Leonurine], the inhibition at 500 µM is reported as 13%.
Work on `CC1=CC(=O)c2ccccc2C1=O` [Menadione] yielded an inhibition at 500 µM of 17%.
For `COC(=O)c1ccc(OC)cc1O` [Methyl 4-methoxysalicylate], the inhibition at 500 µM was 10%.
`NC(=O)c1cccnc1` [Nicotinamide] gave an inhibition at 500 µM of 5%.
`O=C(O)c1cccnc1` [Nicotinic acid] gave an inhibition at 500 µM of 20%.
`Cc1ncc(CO)c(CO)c1O` [Pyridoxine] was tested, and the inhibition at 500 µM was 28%.
`OC[C@H]1O[C@@H](OCCc2ccc(O)cc2)[C@H](O)[C@@H](O)[C@@H]1O` [Salidroside] was tested, and the inhibition at 500 µM was 27%.
